Laboratory results reported in patent US20110124715A1, “Antiviral Oligonucleotides Having a Conserved G4 Core Sequence” (priority 1992, published 2011).
Several values for one entry are separate records, joined by “and”; a condition that tells them apart may be missing. Equal values may be shown once. Read-outs that look alike come from different tables or passages of the source. Strand notation (5' to 3'): a small letter for the sugar, then the base; units joined by * are phosphorothioate-linked, units joined directly phosphodiester-linked; [ ] holds rarer units or linkages, { } end groups; capitals alone tell only the bases. d = 2'-deoxy (DNA)

Columns and labels:
HSV-1 (KOS) [1] = assay: HSV-1 virus yield assay; assay type: cell-based, herpes simplex virus; parameters: dose or concentration left out as unconfirmed; conditions: compared with Acyclovir
HIV-1 [2] = test system: HIV-1
CD4 [3] = molecular target: T1, CD4 (Homo sapiens, UniProt P01730); assay type: binding
[4] = Fraction tetramer by size exclusion chromatography; assay type: physicochemical; conditions: Table 16; asterisk = more than one aggregate species
HIV-1IIIB [5] = test system: HIV-1IIIB
[6] = test system: human T-lymphoblastoid CEM cell line
V3 loop region of gp120 = V3 loop region of gp120 (Human immunodeficiency virus type 1 group M subtype B, UniProt P03375)
CD4 [7] = molecular target: T1, CD4; assay: Immunofluorescent flow cytometry, anti-CD4 mAb on CEM-T4 cells; assay type: cell-based
[8] = test system: chronically infected (H9 IIIB) cell models; assay: Chronically infected cell models; assay type: cell-based, human immunodeficiency virus; conditions: data not shown
HIV-1 [9] = conditions: for inhibition of binding: 5 μM oligonucleotide
human CD44 = molecular target: T2, human CD44 (Homo sapiens, UniProt P16070); assay: Immunofluorescent flow cytometry, anti-CD44 mAb; assay type: cell-based
T2 construct: endogenous in cells; host or cells: HeLa cells harboring an HIV-1 env gene

HIV = assay type: cell-based; conditions: data not shown
HIV-1IIIB [10] = assay: Acute HIV infection assay (XTT, CEM cells); conditions: Table 3; for IC50: inhibition of HIV
gp120 = gp120 (Human immunodeficiency virus type 1 group M subtype B, UniProt P03375); conditions: read-out: dissociation constant (Kd); immobilized gp120; FIG. 16
HSV-1 (KOS) [11] = assay: HSV-1 infection ELISA assay; assay type: cell-based, herpes simplex virus; conditions: Table 1; 50% inhibition of HSV replication relative to control infected cells
[12] = test system: human cytomegalovirus (HCMV); assay type: cell-based
CD4/gp120 interaction = CD4/gp120 interaction (Human immunodeficiency virus type 1 group M subtype B, UniProt P03375); conditions: concentrations 10,000-fold above its IC50; Callahan et al.; cited from earlier work

T2 sequence (P16070 21-361 isoform P16070-12 limits assumed): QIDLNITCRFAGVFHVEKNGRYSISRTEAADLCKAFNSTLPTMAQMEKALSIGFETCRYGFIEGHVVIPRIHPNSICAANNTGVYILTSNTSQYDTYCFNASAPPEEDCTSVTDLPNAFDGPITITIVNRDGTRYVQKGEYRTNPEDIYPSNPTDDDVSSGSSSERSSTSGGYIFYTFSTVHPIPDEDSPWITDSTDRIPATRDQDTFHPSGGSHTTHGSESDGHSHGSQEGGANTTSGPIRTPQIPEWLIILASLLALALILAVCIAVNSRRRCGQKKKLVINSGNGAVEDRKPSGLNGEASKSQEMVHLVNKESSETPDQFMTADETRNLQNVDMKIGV

TT GGGG TT GGGG TT GGGG TT GGGG (TTGGGGTTGGGGTTGGGGTTGGGG; chemistry not fully specified) [ISIS 5651]
antiviral activity, virus yield (HSV-1 (KOS) [1]): greater antiviral activity than did Acyclovir

TsTsGsGsGsGsTsTsB
IC50 (HIV-1 [2]; Table 16, acute HIV assay): 0.4 µM
Kd (CD4 [3]): ~25000 nM
% tetramer [4]: 85%

5651 (TTGGGGTTGGGGTTGGGGTTGGGG; phosphorothioate, further chemistry not given here) [compound 5651]
TI (TC50/IC50) (HIV-1IIIB [5]): 175
TC50 [6]: 19, 19 μM

4721 (CACGGGGTCG; phosphorothioate, further chemistry not given here) [compound 4721]
TI (TC50/IC50) (HIV-1IIIB [5]): 546
TC50 [6]: 142 µM

TT GGGG TT [ISIS 5320]
effect on binding of antisera to gp120 (V3 loop region of gp120): interferes with binding of antisera directed against the V3 loop region of gp120
effect on binding of antibodies to CD4 (CD4 [7]): Neither oligonucleotide significantly decreased binding
effect on chronically infected cells [8]: had no effect
IC50 (HIV-1 [9]; read-out: concentration reducing virus production to 50% of control, tetramer form, infection after 48 hours, data not shown): ~400 nM
IC50 (HIV-1 [2]; Table 15, μM of oligonucleotide strand to inhibit 50% of virus-induced cell killing, error ±0.1 μM): 0.3 µM
IC50 (HIV-1 [2]; Table 16, acute HIV assay, listed as TsTsGsGsGsGsTsT): 0.3 µM
antiviral activity after heat denaturation of the tetrameric complex (HIV-1 [2]; data not shown): loss of activity
effect on binding of antibodies to human CD44 (human CD44): Neither oligonucleotide significantly decreased binding
production of intracellular PCR-amplifiable DNA (HIV): inhibited production of intracellular PCR-amplifiable DNA

5669 (DNA GGGGTTGGGGTTGGGG; unmodified DNA) [compound 5669]
TI (TC50/IC50) (HIV-1IIIB [5]): 9
TC50 [6]: 9.6 µM
IC50 (HIV-1IIIB [10]): 1200 nM

T2A4T2-biotin
Kd (gp120): ~260000 nM

5649 (TTGGGGTTGGGGTTGGGGTTGGGG; phosphodiester, further chemistry not given here) [compound 5649]
TI (TC50/IC50) (HIV-1IIIB [5]): 300
EC50 (HSV-1 (KOS) [11]): > 3000 nM

5367 (TTGGGGTTGGGGTTGGGGTTGGGGG; phosphodiester, further chemistry not given here) [compound 5367]
EC50 (HSV-1 (KOS) [11]): > 4000 nM
TC50 [6]: 52 µM
IC50 [12]: > 2000 nM
TI (TC50/IC50) (HIV-1IIIB [10]): 400
IC50 (HIV-1IIIB [10]): 90 nM and 130 nM

dextran sulfate
effect on gp120/CD4 interaction (CD4/gp120 interaction): does not prevent the gp120/CD4 interaction

TGTGTGTG [ISIS 6071, reference compound]
inhibition of binding (HIV-1 [9]): showed inhibition of binding
IC50 (HIV-1 [2]; Table 16, acute HIV assay): inactive
% tetramer [4]: 0%

5650 (TTGGGGTTGGGGTTGGGGTT; phosphodiester, further chemistry not given here) [compound 5650]
TI (TC50/IC50) (HIV-1IIIB [5]): 12
EC50 (HSV-1 (KOS) [11]): > 3000 nM
TC50 [6]: 7.6 µM
IC50 (HIV-1IIIB [10]): 640 nM

5675 (DNA dT*dT*dG*dG*dG*dG*dT*dT*dG*dG*dG*dG*dT*dT) [compound 5675]
TI (TC50/IC50) (HIV-1IIIB [5]): 36
TC50 [6]: 14 µM

TsTsGsGsGsGsTsT [TsTsGsGsGsGsTsT heat denatured]
inhibition of binding (HIV-1 [9]): showed inhibition of binding
IC50 (HIV-1 [2]; Table 16, acute HIV assay): inactive
% tetramer [4]: 0%
